Assay results taken from patent publication US20050014811A1, “Substituted benzimidazole compounds and their use for the treatment of cancer” (Aventis Pharma S.A., priority 2001, published 2005).

These molecules were tested against CDK4/CyclinD1 (Homo sapiens, UniProt P11802) (assay: CDK4/CyclinD1 Flashplate assay, 96-well format, biotinylated-Rb peptide substrate).
Chain of CDK4/CyclinD1 (P11802 whole entry, species assumed): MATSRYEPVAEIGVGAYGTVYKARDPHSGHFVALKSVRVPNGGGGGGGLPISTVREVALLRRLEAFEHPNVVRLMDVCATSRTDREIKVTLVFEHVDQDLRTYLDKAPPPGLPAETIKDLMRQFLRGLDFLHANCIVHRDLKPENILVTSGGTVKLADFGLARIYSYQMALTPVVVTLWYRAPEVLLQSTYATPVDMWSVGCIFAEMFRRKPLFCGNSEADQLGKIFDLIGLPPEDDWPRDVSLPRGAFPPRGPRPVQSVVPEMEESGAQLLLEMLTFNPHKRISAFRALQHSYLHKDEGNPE
Chain of CDK4/CyclinD1 (P24385 whole entry partner, species assumed): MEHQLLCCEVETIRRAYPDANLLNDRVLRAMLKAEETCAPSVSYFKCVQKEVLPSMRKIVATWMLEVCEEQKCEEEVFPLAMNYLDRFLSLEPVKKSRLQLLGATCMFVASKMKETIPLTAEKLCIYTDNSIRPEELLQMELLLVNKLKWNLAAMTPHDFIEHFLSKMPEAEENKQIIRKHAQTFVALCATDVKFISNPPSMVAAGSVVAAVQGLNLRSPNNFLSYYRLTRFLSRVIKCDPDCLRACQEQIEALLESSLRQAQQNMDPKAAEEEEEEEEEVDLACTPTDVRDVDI
Type: biochemical
Protocol: This is a CDK4/CyclinD1 kinase assay in a 96-well Streptavidin-coated Flashplate with a biotinylated-Rb peptide substrate.
Each point is tested in duplicate
Biotinylated-Rb: Biotin-[…]
• 1. Prepare substrate: 1 mg/ml solution made fresh in PBS. • 2. Add 100 μg per well to the Flashplate. • 3. Incubate for 2 hours at RT. • 4. From 10 mM inhibitor stocks in DMSO, make 1 mM, 300 μM, 100 μM, 30 μM and 10 μM series of dilution in DMSO. • 5. Wash the Flashplate 3 times with 300 μl PBS to remove unbound peptide substrate. • 6. Add the CDK4/CyclinD1 kinase: 70 ng per well, in a volume of 90 μl in kinase buffer (except for “no enzyme” control wells). • 7. Add 1 μl^1 per well of inhibitor to test 10 μM, 3 μM, 1 μM, 0.3 μM and 0.1 μM in final concentration per 100 μl in each well. • 8. Shake gently the Flashplate 1 minute. • 9. Incubate 30 minutes on wet ice. • 10. Initiate the reaction with 10 μl kinase buffer containing 1 μM final cold ATP and 1 μCi final ^33P-ATP per well. • 11. Shake gently the Flashplate 1 minute. • 12. Incubate 45 minutes at RT (no shaking). • 13. Wash the Flashplate 3 times with 300 μl PBS • 14. Count to detect the incorporation of ^33P-ATP by the kinase to the Rb phosphorylation site.
With “4-Benzylamino-benzenesulfonic acid 2-(cyclopropanecarbonyl-amino)-1H-benzoimidazol-5-yl ester [Example 60-a]” the IC50 was 800 nM.
For `COC(=O)Nc1nc2cc(OS(=O)(=O)c3ccc(NC(C)CO)cc3)ccc2[nH]1` (stereo not shown) [Example 8, Methyl-5-(4-[1-methyl,2-hydroxyethyl]aminophenyl-sulfonyloxy) benzimidazole-2-carbamate], the IC50 was 1100 nM.
Work on `COC(=O)Nc1nc2cc(OS(=O)(=O)c3ccc(NCC(C)O)cc3)ccc2[nH]1` (stereo not shown) [Example 9, Methyl-5-(4-[2-methyl,2-hydroxyethyl]aminophenyl-sulfonyloxy) benzimidazole-2-carbamate] yielded an IC50 of 2000 nM.
`CCCCNc1ccc(S(=O)(=O)Oc2ccc3[nH]c(NC(=O)OC)nc3c2)cc1` [Example 12, Methyl-5-(4-butylaminophenylsulfonyloxy) benzimidazole-2-carbamate] showed an inhibition at 10 µM of 14%.
`Nc1nc2cc(OS(=O)(=O)c3ccc(NC4CCCC4)cc3)ccc2[nH]1` [Example 22, 5-(4-cyclopentylaminophenylsulfonyloxy)-1H-benzimidazole-2-ylamine] gave an IC50 of 1770 nM.
`NC(=O)C1CCCN1C(=O)Nc1nc2cc(OS(=O)(=O)c3ccc(NC4CCCC4)cc3)ccc2[nH]1` (stereo not drawn) [Example 58-ae, 4-Cyclopentylamino-benzenesulfonic acid 2-[(2S-carbamoyl-pyrrolidine-1-carbonyl)-amino]-1H-benzoimidazol-5-yl ester] gave an IC50 of 1490 nM.
`CCOC(=O)CCCNC(=O)Nc1nc2cc(OS(=O)(=O)c3ccc(NC4CCCC4)cc3)ccc2[nH]1` [Example 58-n, 4-{3-[5-(4-Cyclopentylamino-benzenesulfonyloxy)-1H-benzoimidazol-2-yl]-ureido}-butyric acid ethyl ester] gave an IC50 of 600 nM.
Molecule `O=C(NCCCn1ccnc1)Nc1nc2cc(OS(=O)(=O)c3ccc(NC4CCCC4)cc3)ccc2[nH]1` [Example 58-p, 4-Cyclopentylamino-benzenesulfonic acid 2-[3-(3-imidazol-1-yl-propyl)-ureido]-1H-benzoimidazol-5-yl ester] has an IC50 of 600 nM.
With `O=C(O)[C@@H]1CCCN1C(=O)Nc1nc2cc(OS(=O)(=O)c3ccc(NC4CCCC4)cc3)ccc2[nH]1` [Example 58-q, 1-[5-(4-Cyclopentylamino-benzenesulfonyloxy)-1H-benzoimidazol-2S-ylcarbamoyl]-pyrrolidine-2-carboxylic acid] the IC50 was 1000 nM.
Molecule `CCOC(=O)C1CCN(C(=O)Nc2nc3cc(OS(=O)(=O)c4ccc(NC5CCCC5)cc4)ccc3[nH]2)CC1` [Example 58-t, 1-[5-(4-Cyclopentylamino-benzenesulfonyloxy)-1H-benzoimidazol-2-yl-carbamoyl]-piperidine-4-carboxylic acid ethyl ester] has an IC50 of 9000 nM.
Work on `CCC(C)(C)NC(=O)Nc1nc2cc(OS(=O)(=O)c3ccc(NC4CCCC4)cc3)ccc2[nH]1` [Example 58-z, 4-Cyclopentylamino-benzenesulfonic acid 2-[3-(1,1-dimethyl-propyl)-ureido]-1H-benzoimidazol-5-yl ester] yielded an IC50 of 2230 nM.
`O=C(Nc1nc2cc(OS(=O)(=O)c3ccc(NCCN4CCNCC4)cc3)ccc2[nH]1)C1CC1` [Example 60-aa, 4-(2-Piperazin-1-yl-ethylamino)-benzene-sulfonic acid 2-(cyclopropanecarbonyl-amino)-1H-benzoimidazol-5-yl ester] gave an IC50 of 3900 nM.
Molecule `NC(=O)C1CCCCC1Nc1ccc(S(=O)(=O)Oc2ccc3[nH]c(NC(=O)C4CC4)nc3c2)cc1` (stereo not shown) [Example 60-ab, 4-(2-Carbamoyl-cyclohexylamino)-benzenesulfonic acid 2-(cyclopropanecarbonyl-amino)-1H-benzoimidazol-5-yl ester] has an IC50 of 4000 nM.
Work on `CC(=O)NCCNc1ccc(S(=O)(=O)Oc2ccc3[nH]c(NC(=O)C4CC4)nc3c2)cc1` [Example 60-ac, 4-(2-Acetylamino-ethylamino)-benzenesulfonic acid 2-(cyclopropanecarbonyl-amino)-1H-benzoimidazol-5-yl ester] yielded an IC50 of 800 nM.
For `NCCNCCNc1ccc(S(=O)(=O)Oc2ccc3[nH]c(NC(=O)C4CC4)nc3c2)cc1` [Example 60-ad, 4-[2-(2-Amino-ethylamino)-ethylamino]-benzenesulfonic acid 2-(cyclopropanecarbonyl-amino)-1H-benzoimidazol-5-yl ester], the IC50 was 1300 nM.
`O=C(Nc1nc2cc(OS(=O)(=O)c3ccc(NCCCN4CCCC4=O)cc3)ccc2[nH]1)C1CC1` [Example 60-ae, 4-[3-(2-Oxo-pyrrolidin-1-yl)-propylamino]-benzenesulfonic acid 2-(cyclopropanecarbonyl-amino)-1H-benzoimidazol-5-yl ester] gave an IC50 of 2200 nM.
`O=C(Nc1nc2cc(OS(=O)(=O)c3ccc(NC4CCC4)cc3)ccc2[nH]1)C1CC1` [Example 60-ah, 4-Cyclobutylamino-benzenesulfonic acid 2-(cyclopropanecarbonyl-amino)-1H-benzoimidazol-5-yl ester] was tested, and the IC50 was 550 nM.
Work on `O=C(Nc1nc2cc(OS(=O)(=O)c3ccc(NCCOCCO)cc3)ccc2[nH]1)C1CC1` [Example 60-ai, 4-[2-(2-Hydroxy-ethoxy)-ethylamino]-benzenesulfonic acid 2-(cyclopropanecarbonyl-amino)-1H-benzoimidazol-5-yl ester] yielded an IC50 of 1600 nM.
With `CNc1ccc(S(=O)(=O)Oc2ccc3[nH]c(NC(=O)C4CC4)nc3c2)cc1` [Example 60-b, 4-Methylamino-benzenesulfonic acid 2-(cyclopropanecarbonyl-amino)-1H-benzoimidazol-5-yl ester] the IC50 was 150 nM.
With `O=C(Nc1nc2cc(OS(=O)(=O)c3ccc(NCCO)cc3)ccc2[nH]1)C1CC1` [Example 60-c, 4-(2-Hydroxy-ethylamino)-benzenesulfonic acid 2-(cyclopropanecarbonyl-amino)-1H-benzoimidazol-5-yl ester] the IC50 was 340 nM.
In the case of `O=C(Nc1nc2cc(OS(=O)(=O)c3ccc(NCCCO)cc3)ccc2[nH]1)C1CC1` [Example 60-d, 4-(3-Hydroxy-propylamino)-benzenesulfonic acid 2-(cyclopropanecarbonyl-amino)-1H-benzoimidazo1-5-yl ester], the IC50 is reported as 900 nM.
`O=C(Nc1nc2cc(OS(=O)(=O)c3ccc(NCCCCO)cc3)ccc2[nH]1)C1CC1` [Example 60-e, 4-(4-Hydroxy-butylamino)-benzenesulfonic acid 2-(cyclopropanecarbonyl-amino)-1H-benzoimidazol-5-yl ester] gave an IC50 of 900 nM.
In the case of `COCC(C)Nc1ccc(S(=O)(=O)Oc2ccc3[nH]c(NC(=O)C4CC4)nc3c2)cc1` (stereo not shown) [Example 60-f, 4-(2-Methoxy-1-methyl-ethylamino)-benzenesulfonic acid 2-(cyclopropanecarbonyl-amino)-1H-benzoimidazol-5-yl ester], the IC50 is reported as 1000 nM.
`O=C(Nc1nc2cc(OS(=O)(=O)c3ccc(NCCN4CCCC4)cc3)ccc2[nH]1)C1CC1` [Example 60-g, 4-(2-Pyrrolidin-1-yl-ethylamino)-benzenesulfonic acid 2-(cyclopropanecarbonyl-amino)-1H-benzoimidazol-5-yl ester] was tested, and the IC50 was 1500 nM.
For `CC(CO)Nc1ccc(S(=O)(=O)Oc2ccc3[nH]c(NC(=O)C4CC4)nc3c2)cc1` (stereo not shown) [Example 60-i, 4-(2-Hydroxy-1-methyl-ethylamino)-benzenesulfonic acid 2-(cyclopropanecarbonyl-amino)-1H-benzoimidazol-5-yl ester], the IC50 was 300 nM.
